Reference: US11439639B2, “Pyrazine-containing compound” (CalciMedica, Inc., priority 2015, dated 2022)

Assays:
[1] = test system: Mouse Pancreatic Acinar Cells (PACs); assay: TLCS-induced necrosis in mouse pancreatic acinar cells (propidium iodide uptake); type: cell-based
Description: (§1) Mouse Pancreatic Acinar Cells (PACs) were extracted and incubated with either a carrier (control) or with natural bile acid TLCS (taurolithocholic acid 3-sulfate) in the absence or presence of GSK-7975A. Cells were contacted with propidium iodide to assay for cell necrosis. TLCS treatment to individual cells in vitro mimics the effect of a gall stone or other blockage in pancreatic secretion in vivo.
Mouse PACs were treated with either DMSO, DMSO plus 500 μM TLCS, or DMSO plus 500 μM TLCS plus 1 μM of the CRAC inhibitor Compound I. Cell necrosis was measured as % PI uptake. The CRAC inhibitor Compound I inhibits TLCS-induced necrosis in mouse PACs.

[2] = test system: Human PACs; assay: TLCS-induced necrosis in human pancreatic acinar cells (propidium iodide); type: cell-based; details: TLCS plus 10 μM GSK-7975A, TLCS alone about 45%, no TLCS about 23%
Description: as §1, with “Human PACs” for “Mouse Pancreatic Acinar Cells (PACs)”, “TLCS” for “TLCS (taurolithocholic acid 3-sulfate)”

[3] = test system: Mouse acute pancreatitis models; assay: Mouse acute pancreatitis models (Caerulein, TLCS, FAEE), pancreas histopathology; type: in vivo; details: TLCS or FAEE model, doses giving tissue levels 10× or 40× the IC50, more pronounced at 40×
Description: Mouse acute pancreatitis models were used to evaluate the effect of a CRAC inhibitor on pancreas histopathological progression. Caerulein is used to hyper-stimulate CCK receptors in the normal Calcium signaling pathway in the mouse pancreas. TLCS is used to induce acute pancreatitis through simulation of an excess of bile acid, as would be experienced in a gallstone induced acute pancreatitis. Fatty acid ethyl esters (FAEE) are used to simulate alcohol-induced acute pancreatitis. Mice were treated with the acute pancreatitis agent (Caerulin, FIG. 2A, TLCS, FIG. 2B or FAEE, FIG. 2C) alone or with the CRAC inhibitor GSK-7975A at either 10× or 40× the IC50 of the CRAC inhibitor.

[4] = target: Orai1/STIM1 channels (Homo sapiens, UniProt Q96D31); assay: CRAC channel inhibition, Orai1/STIM1; type: cell-based; details: for IC50: Orai1/STIM1 channels
Chain of Orai1/STIM1 channels (Q96D31 whole entry): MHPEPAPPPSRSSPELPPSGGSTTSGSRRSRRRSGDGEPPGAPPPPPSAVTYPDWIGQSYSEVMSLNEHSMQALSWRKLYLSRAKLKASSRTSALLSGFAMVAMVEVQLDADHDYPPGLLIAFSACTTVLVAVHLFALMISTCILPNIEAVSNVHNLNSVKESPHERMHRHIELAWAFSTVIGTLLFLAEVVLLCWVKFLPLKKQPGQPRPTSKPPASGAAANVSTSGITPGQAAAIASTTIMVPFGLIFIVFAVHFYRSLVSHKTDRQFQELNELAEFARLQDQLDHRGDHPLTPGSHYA
Chain of Orai1/STIM1 channels (Q13586 23-685 partner): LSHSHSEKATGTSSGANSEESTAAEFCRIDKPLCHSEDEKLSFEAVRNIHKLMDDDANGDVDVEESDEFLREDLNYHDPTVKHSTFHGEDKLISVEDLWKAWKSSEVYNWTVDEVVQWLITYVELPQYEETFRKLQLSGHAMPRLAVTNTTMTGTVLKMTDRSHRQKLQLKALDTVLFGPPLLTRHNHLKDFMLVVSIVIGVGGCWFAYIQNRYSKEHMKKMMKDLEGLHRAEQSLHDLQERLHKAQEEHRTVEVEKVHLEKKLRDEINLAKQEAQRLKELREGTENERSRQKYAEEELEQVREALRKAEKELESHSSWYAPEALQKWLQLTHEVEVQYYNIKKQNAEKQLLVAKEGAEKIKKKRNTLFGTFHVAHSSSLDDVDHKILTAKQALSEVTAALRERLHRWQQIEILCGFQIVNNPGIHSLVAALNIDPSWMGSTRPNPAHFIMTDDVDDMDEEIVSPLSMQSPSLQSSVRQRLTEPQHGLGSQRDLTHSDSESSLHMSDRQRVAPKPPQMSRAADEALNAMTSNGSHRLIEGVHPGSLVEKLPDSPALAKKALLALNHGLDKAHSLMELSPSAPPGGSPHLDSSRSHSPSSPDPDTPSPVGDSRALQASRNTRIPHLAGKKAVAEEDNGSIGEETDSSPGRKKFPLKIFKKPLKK
Description: (§2) Compound I and GSK-7975A were assayed for their inhibitory effect on CRAC channels. Channels comprising Orai1/STIM1 and Orai2/STIM1 were assayed.

[5] = target: Orai2/STIM1 channels (Homo sapiens, UniProt Q96SN7); assay: CRAC channel inhibition, Orai2/STIM1; type: cell-based
Chain of Orai2/STIM1 channels (Q96SN7 whole entry): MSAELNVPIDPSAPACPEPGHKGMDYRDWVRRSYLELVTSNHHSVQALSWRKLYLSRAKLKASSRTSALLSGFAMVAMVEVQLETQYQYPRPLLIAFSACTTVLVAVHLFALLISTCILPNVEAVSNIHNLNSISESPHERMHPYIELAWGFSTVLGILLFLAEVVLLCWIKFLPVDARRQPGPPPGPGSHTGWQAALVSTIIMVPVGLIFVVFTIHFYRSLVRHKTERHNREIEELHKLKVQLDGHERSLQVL
Chain of Orai2/STIM1 channels (Q13586 23-685 partner): as the sequence (Q13586 23-685 partner) above
Description: as §2

[6] = test system: Mouse PACs; assay: Rate of store-operated Calcium entry in mouse PACs, dose dependence; type: cell-based; parameters: block of reuptake: dose or concentration left out as unconfirmed; details: for activity at 0.7 µM: Mus musculus, 700 nM of inhibitor, read-out: rate of store-operated Calcium entry, % of control levels
Description: Mouse PACs were treated with CRAC inhibitors Compound I (FIG. 5A) or GSK-7975A (FIG. 5B) and monitored for their rate of Calcium uptake. […] Compound I blocks 100% of reuptake […].

[7] = test system: Mouse PACs; assay: CCK-induced Ca2+ entry in mouse PACs; type: cell-based; details: CCK 10 nM, then 1.8 mM Calcium; pretreatment with inhibitor
Description: Mouse PACs were monitored for their Calcium uptake upon treatment with CCK at 10 nM. Cells were treated with CCK, and then provided with 1.8 mM Calcium and Calcium reuptake was monitored. […] Compound I pretreatment reduced Calcium re-uptake to near 0% of the control. GSK-7975A reduced calcium reuptake to about 30% of the control.

[8] = test system: Mouse Acinar cells; assay: TLCS-induced amylase release in mouse acinar cells; type: cell-based; details: TLCS-treated mouse acinar cells, compared with EGTA
Description: Amylase release from PACs has an ER calcium-dependent and a CRAC/cytosolic calcium-dependent component. The calcium dependent component is blocked by introduction of the divalent cation chelating agent EGTA. Mouse Acinar cells were treated with TLCS and either vehicle, EGTA, or a CRAC inhibitor such as Compound I, GSK-7975A or Compound II and monitored for Amylase release. It is observed that CRAC inhibitors mimicked EGTA in their effect on Amylase release.

[9] = test system: Mouse PACs; assay: CPA-induced store-operated Ca2+ entry (calcium reuptake) in mouse PACs; type: cell-based; details: CPA-treated mouse PACs, excess Calcium given 15 minutes after release
Description: Mouse PACs were isolated and assayed for the effect of CRAC inhibitors on calcium re-uptake into the ER. Cells were treated with cyclopiazonic acid (CPA) alone (FIG. 4A) or in combination with the CRAC inhibitor Compound I (FIG. 4B) to activate CRAC channels to release Ca^2+. At 15 minutes following Calcium release, cells were provided with an excess of Calcium and monitored for Calcium uptake into the ER.

[10] = test system: T cells in bulk human PBMCs; assay: Cytokine release from anti-CD3/anti-CD28 stimulated human PBMCs (Luminex); type: cell-based; details: plate-bound anti-CD3/anti-CD28, 10% serum, 48 hrs
Description: Compound I was tested for its inhibitory effect on a number of cytokines. Cytokines INF-gamma, IL-4, and IL-4 receptors of which are expressed on Acinar cells, cytokines IL-lbeta, IL-6, IL-10 and TNF-alpha, expressed in Acinar cells, and IL-2 and IL-7, cytokines important in T-cell function, were tested for an inhibitory effect of the CRAC inhibitor Compound I. T cells in bulk human PBMCs were stimulated with plate-bound anti-CD3/anti-CD28 in buffer +10% serum for 48 hrs. Released cytokines were measured by Luminex at Millipore.

[11] = test system: caerulein-induced pathology in the mouse pancreas; assay: Mouse caerulein model of acute pancreatitis, prophylactic i.p. dosing, pancreas pathology; type: in vivo; details: C57B6 mice
Description: Mice were treated with a CRAC inhibitor or a vehicle prophylactically, and then challenged with CCK to trigger acute pancreatitis.

[12] = Compound levels in the pancreas after i.p. injection; type: in vivo, mouse; details: as a function of dose
[13] = test system: caerulein-induced acute pancreatitis; assay: Serum amylase and serum lipase in mouse caerulein model of acute pancreatitis; type: in vivo; details: doses up to 20 mg/kg
Description: Mice were either untreated (Normal), treated with CCK only (vehicle), or treated with CCK in combination with CsA or a CRAC inhibitor at the indicated dose. Serum amylase activity (FIG. 9A) and Serum Lipase activity (FIG. 9B) (IU/L) were measured.

[14] = test system: caerulein-induced pathology in the pancreas; assay: Therapeutic/prophylactic mouse caerulein model, histopathology scores; type: in vivo
Description: Seven hourly i.p. injections of caerulein were given to induce pancreatitis, with animals sacrificed 8 hr after the 1st injection. Compound I was administered i.p. either 30 min before the 1st caerulein injection (prophylactic), or after the 3rd injection (therapeutic). CsA was administered p.o. on the same schedule as Compound I. The results are depicted in FIG. 10. Histopathology scores were measured in light of observation of Acinar cell degeneration, coagulation necrosis, and inflammation and edema measurements. Compound I produced a significant 35% reduction in caerulein-induced pathology in the pancreas when administered after the 3rd caerulein injection, consistent with efficacy in a therapeutic mode.

[15] = test system: Mouse PACs; assay: TLCS-induced Ca2+ entry in mouse PACs (cytosolic calcium, F345/F380); type: cell-based; details: 500 μM TLCS; Compound I at 1 or 3 μM
Description: Mouse PACs were treated with 500 μM TLCS and either 0, 1μM or 3 μM of the CRAC inhibitor Compound I. Cytosolic Calcium levels (measured as F345/ F380 ratios) were measured for each treatment. TLCS releases Ca^2+ from intracellular stores (not shown), initiating SOCE. […] The results are depicted in FIG. 11.

[16] = test system: Candid-1 JUNV; type: cell-based, Junin virus; details: VeroE6 cells; 1, 10, 25, 50 μM Compound I
[17] = test system: murine T cells; assay: Store-operated Ca2+ entry in murine T cells under Th1-, Th2-, Th17-polarizing conditions; type: cell-based; details: 1 μM Compound I, Th17 versus naive
Description: Naive and stimulated murine T cells cultured under Th1-, Th2-, and Th17-polarizing conditions are treated with either DMSO, DMSO plus 500 μM TLCS, or DMSO plus 500 μM TLCS plus 1 μM of the CRAC inhibitor Compound I. Store-operated Ca^2+ entry (SOCE) is quantified in each treatment.

[18] = test system: Th17 cells; assay: Cytokine production by Th1, Th2 and Th17 cells; type: cell-based, murine; details: compared with IFN-γ and IL-4 production by Th1 and Th2 cells

Structure (SMILES): O=C(Nc1ccn(Cc2ccc(O)cc2C(F)(F)F)n1)c1c(F)cccc1F [GSK-7975A, 2,6-Difluoro-N-(1-(4-hydroxy-2-(trifluoromethyl)benzyl)-1H-pyrazol-3-yl)benzamide, reference compound]
- percent necrosis ([1]; TLCS plus 10 μM GSK-7975A, TLCS alone about 45%, no TLCS about 10%): about 23%
- percent necrosis [2]: about 30%
- total histopathology score [3]: substantially reduces
- IC50 [4]: 398 nM
- IC50 [5]: 1450 nM
- activity at 0.7 µM [6]: 50%
- Calcium re-uptake, % of the control [7]: about 30%
- effect on Amylase release [8]: mimicked EGTA

Structure (SMILES): Cc1cccc(F)c1C(=O)Nc1cnc(-c2cc3c(cc2Cl)OC(F)(F)O3)cn1 [Compound I, N-(5-(6-chloro-2,2-difluorobenzo[d][1,3]dioxol-5-yl)pyrazin-2-yl)-2-fluoro-6-methylbenzamide]
- TLCS-induced necrosis (% PI uptake) ([1]; 500 μM TLCS plus 1 μM Compound I): inhibits
- potency on Orai1-type CRAC channels compared to GSK-7975A ([4]; Compound I versus GSK-7975A): about 4 fold
- IC50 [4]: 119 nM
- IC50 [5]: 895 nM
- reuptake of Calcium [9]: do not demonstrate reuptake of Calcium
- block of reuptake [6]: 100%
- activity at 0.7 µM [6]: 50%
- Calcium re-uptake, % of the control [7]: ~0%
- release of multiple cytokines [10]: potently inhibits
- caerulein-induced pathology in the mouse pancreas [11]: significant and dose-dependent reductions
- Compound I levels in the pancreas [12]: dose-proportional increase
- caerulein-induced serum amylase activity [13]: significant and dose-dependent reductions
- caerulein-induced serum lipase activity [13]: significant and dose-dependent reductions
- reduction in caerulein-induced pathology in the pancreas ([14]; prophylactic: i.p. 30 min before the 1st caerulein injection): 26%
- reduction in caerulein-induced pathology in the pancreas ([14]; therapeutic: i.p. after the 3rd caerulein injection): 35%
- TLCS-induced Ca2+ entry [15]: completely blocked
- effect on Amylase release [8]: mimicked EGTA
- JUNV virus production (foci) [16]: statistically significant, dose-dependent reduction
- Store-operated Ca2+ entry (SOCE) [17]: blocks SOCE stronger in differentiated Th17 cells
- IL-17A production by Th17 cells [18]: more severely affected

Structure (SMILES): Cc1nc2cc(C)c(-c3cnc(NC(=O)c4c(F)ccc(F)c4F)s3)cc2o1 [Compound II, N-(5-(2,5-dimethylbenzo[d]oxazol-6-yl)thiazol-2-yl)-2,3,6-trifluorobenzamide]
- effect on Amylase release [8]: mimicked EGTA
